Consider two molecules from patent publication US20070213324A1 (priority 2006, published 2007).

The test system of data set [1] is production of thromboxane in platelets. Particulars: cited from earlier work.
Data set [2] concerns platelet aggregation induced by collagen or arachidonic acid. Particulars: cited from earlier work.
Data set [3] deals with plasma proteins. The settings on record: cited from earlier work.
The conditions of data set [4]: cited from earlier work.
The conditions of data set [5]: cited from earlier work. This is another data set of the same source.
In data set [6] the test system is functional recovery of patients with a sprained ankle. Put plainly: Phase II functional recovery.
For data set [7], the system named is pain produced by a sprained ankle. Description: Phase II evaluation of pain by visual analogue scale (VAS). It is filed as in vivo, human. The settings on record: for time from administration to analgesic effect (VAS, significant versus placebo): carisoprodol 200 mg / meloxicam 15 mg, sprained ankle.
The nature of data set [8]: Phase I bioavailability study, single dose and steady state. The settings on record: carisoprodol, any condition.
Experimental: Sixty healthy male volunteers participated in the study and were divided into four treatment groups. […] The study was prospective, single-blind, parallel, longitudinal, and comparative with a placebo and with the components of the combination administered separately, with randomized distribution into 4 groups.
A pharmacokinetic study was conducted on day 1 and day 14 so that bioavailability could be clearly identified for single dose and for multiple doses, and so that the bioequivalence of the combined product could be compared to the individual products.
The conditions of data set [9]: in vivo.

Turning to `Cc1cnc(NC(=O)C2=C(O)c3ccccc3S(=O)(=O)N2C)s1` [Meloxicam, 4-hydroxy-2-methyl-N-(5-methyl-2-thiazolyl)-2H-1,2-benzothiazine-3-carboxamide-1,1-dioxide], the “production of thromboxane in platelets” value in data set [1] is “significantly reduce”. Moreover, in data set [2], the “inhibition of platelet aggregation” value is reported as “does not inhibit”. The “bound to plasma proteins” value in [3] is 99.5%. In data set [4] (after administration, enterohepatic circulation), the “time of second maximum concentration peak” value was 12 to 14 h. Moreover, the “time to steady state” value in data set [4] (days of dosage) is reported as 5 days. In addition, the “effect of food intake on absorption” value in data set [4] (in vivo) is given as “not altered”. Moreover, in data set [4] (orally), the absorbed after administration is reported as 89%. Also, the solubility in methanol result in data set [5] (methanol) is given as “very slightly soluble”. Further, the “solubility in strong acids and bases” value in data set [5] (strong acids and bases) is listed as “higher solubility”. For the same molecule, the solubility in water entry in data set [5] (water) is “practically insoluble in water”. In data set [6] (1440 minutes), the “p versus placebo, functional recovery” value worked out at 0.037. For the same molecule, the “time at which functional recovery is statistically different from placebo” value in data set [6] (in vivo) turned out to be 24 h. Moreover, the “time from administration to functional recovery (significant versus placebo)” value in data set [6] (sprained ankle) was found to be 1440 min. Also, the “time from administration to analgesic effect (VAS, significant versus placebo)” value is “up to 360 minutes” in [7] and 360 min in data set [7] (listed as meloxicam). Further, the “p versus placebo, VAS” value in [7] (minute 360) was 0.021.
In general, half-life refers to how long it takes for the measured level to halve. As for `CCCC(C)(COC(N)=O)COC(=O)NC(C)C` (stereo not shown) [Carisoprodol], the “bioequivalence, combined versus on its own” value in [8] was “no bioequivalence in any condition”. Also, in data set [4] (in vivo), the half-life is 8 h and the “time of initial musculoskeletal relaxant effect” value was 30 to 45 min. Moreover, in data set [9], the blood pressure entry is given as “decrease in blood pressure”; the “changes in the physiological tests (reaction time, awareness)” value was “did not produce any changes”; the “sedative effect: MINIMENTAL test before versus after administration” value is “no significant differences”.
